{
  "source": "patent US5610185A",
  "about": "“Method for the treatment of hyperproliferative epithelial skin diseases by topical application of hydroxylated aromatic protein cross-linking compounds” (The United States of America as represented by the …, priority 1995, dated 1997)",
  "key": {"[1]": {"system": "normal human epidermal keratinocytes from foreskin", "assay": "Cross-linking in primary normal human epidermal keratinocytes", "type": "cell-based", "conditions": "Keratinocyte, read-out: concentration for response in cross-linking", "description": "The increased sensitivity of mouse primary keratinocytes for the cross-linking effect is not related to the normal phenotype. […] Hydroxylated aromatic protein crosslinking compounds induce the cross-linking of cell proteins into cornified envelope-like structures, causing cell death by a non-biological mechanism which emulates the normal differentiation program of epidermal keratinocytes. In addition to their growth inhibitory properties, the unique protein cross-linking ability of the class of compounds described in the instant invention proffers a new mechanism for the topical treatment of hyperproliferative diseases of the skin."}, "[2]": {"system": "A431 human epidermoid carcinoma cells", "assay": "Cornified envelope (cross-linked protein) assay, A431 cells", "type": "cell-based", "description": "FIG. 5. Cross-linked Protein Production vs Growth Inhibition in A431 ([…]) Cells. Cell growth is represented by black circles and crosslinked protein production by white circles. Results are ±SD (n=3) of one experiment, representative of three.\nPrimary mouse keratinocytes were isolated from BALB/c newborn mouse skin. Primary keratinocytes, the benign neoplastic keratinocyte cell lines 308 and SP-1 (Strickland et al, Cancer Res., 48, 165-169, 1988) and the mouse squamous cell carcinoma line 1-7 (Greenhalgh et al., Proc. Natl. Acad. Sci., 87, 643-647, 1990) were grown in Eagle's minimal essential medium with 8% fetal calf serum (FCS) (chelexed) and penicillin 20 iu/ml, streptomycin 20 ug/ml (P/S). […]\nCells were incubated with MC for 48 hours, then cross-linked protein was isolated and measured as described in Example 1.\nThe assay measures insoluble cross-linked protein envelopes as described (Hough-Monroe et al. Analytical biochem., 199, 25-28, 1991), with modifications as follows. […] Absorbance of eluate was measured on a Titertek plate reader at 600 nm.\nCells were seeded at low density and were treated with MC for 3 days. Cells were then counted and increase in cell number was compared to untreated controls, or cells were processed for cross-linked protein (FIG. 5)."}, "athymic nude mouse skin": {"system": "athymic nude mouse skin", "assay": "Acute topical toxicity on athymic nude mouse skin", "type": "in vivo", "description": "FIGS. 9A, 9B, 9C, 9D and 9E show color photographs. Topical Application of MC on Athymic Nude Mouse Skin. Histological sections were taken from paraffin-embedded tissue and were stained with hematoxylin and eosin. Panel a is vehicle control; panel b is 100 μM MC; panel c is 1 mM MC; panel d is 10 mM MC; and panel e is 100 mM MC. Magnification is 200x.\nFIGS. 13A, 13B and 13C show color photographs of mice. […] Photographs were taken after animal sacrifice upon termination of the experiments.\nAcute topical toxicity of MC was assessed by its application to athymic mouse skin and observation for inflammation, ulceration or other signs of toxicity after 5x weekly applications for 2 weeks and by microscopical analysis of paraffin-embedded sections of athymic mouse skin after MC application. Male nu/nu mice, 8 weeks old, were subdivided into 5 treatments groups and MC was administered topically in 10% DMSO in acetone vehicle. Mice were treated with a control vehicle, 100 μM MC, 1 mM MC, 10 mM MC or 100 mM MC. Treatment was 5 times per week for two weeks, after which animals were sacrificed and dorsal skin was fixed in Carnoy's solution at 4° C. for 24 hours followed by ethanol 100%. Histological sections were taken from paraffin-embedded tissue and were stained with hematoxylin and eosin. FIG. 13 illustrates the effect of MC on the skin of nude mice.\nMale nu/nu mice, 8 weeks old, were subdivided into treatment groups and MC was administered topically to dorsal skin in 10% DMSO in acetone vehicle (25 μl). Treatment was 5 times per week for two weeks. […] MC itself is yellow-brown, so some discoloration would be expected due to drug deposition and accumulation at this high concentration."}},
  "note": "Entries after “also recorded” stand apart in the source; their conditions may differ.",
  "data": [
    {"smiles": "COC(=O)C=Cc1cc(O)ccc1O", "note": "[MC, methyl 2,5-dihydroxycinnamate]", "values": [
      {"measurement": "minimal effective concentration", "setting": "[1]", "value": "≥ 250", "unit": "µM"},
      {"measurement": "cross-linked protein (envelope production)", "setting": "[2]; A431, 48 h, 0.1-1 mM", "value": "induced crosslinked envelope production; also recorded: increased cross-linked protein in a dose-dependent manner"},
      {"measurement": "minimal effective concentration", "setting": "[2]; Homo sapiens, A-431, 72 h, A431, 3 days, read-out: concentration at which protein cross-linking is evident", "value": "≥ 250", "unit": "µM"},
      {"measurement": "microscopy: inflammatory infiltrates", "setting": "athymic nude mouse skin; mouse, in vivo", "value": "focal inflammatory infiltrates were visible"},
      {"measurement": "microscopy: necrosis", "setting": "athymic nude mouse skin; mouse, in vivo", "value": "no obvious necrosis"},
      {"measurement": "microscopy: vacuolation of epidermal cells", "setting": "athymic nude mouse skin; mouse, in vivo", "value": "some vacuolation of epidermal cells"},
      {"measurement": "systemic toxicity or changes in skin at the application site", "setting": "athymic nude mouse skin; mouse, in vivo", "value": "No changes were observed"},
      {"measurement": "acute toxicity or inflammation by microscopy", "setting": "athymic nude mouse skin; up to 10 mM, topical, normal athymic mouse skin", "value": "not acutely toxic or inflammatory"}
    ]}
  ]
}
